What was measured:
NRAS G12C = NRAS G12C (Homo sapiens (Human), UniProt P01111+P62937, G12C); assay: Ras-Raf (BRAF RBD) disruption / FRET / MOA assay, NRAS G12C; assay type: biochemical; conditions: read-out: IC50* NRAS G12C FRET data
Procedure, shortened: (§1)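 Compound-driven ternary complex of nucleotide-loaded Ras with cyclophilin A, disrupting BRAF RBD binding. 10-point 3-fold dilution from 30 μM final, 3 h at 25° C, then anti-His Eu-W1024 (10 nM) and anti-GST allophycocyanin (50 nM) for 1.5 h. IC50 from TR-FRET ratio decrease versus DMSO.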

KRAS G12V = KRAS G12V (Homo sapiens (Human), UniProt P01116+P62937, G12V); assay: Ras-Raf (BRAF RBD) disruption / FRET / MOA assay, KRAS G12V; assay type: biochemical; conditions: read-out: IC50* KRAS G12V FRET data
Chain of KRAS G12V (P01116-2 other isoform, or with tags, fused parts or gaps G12V): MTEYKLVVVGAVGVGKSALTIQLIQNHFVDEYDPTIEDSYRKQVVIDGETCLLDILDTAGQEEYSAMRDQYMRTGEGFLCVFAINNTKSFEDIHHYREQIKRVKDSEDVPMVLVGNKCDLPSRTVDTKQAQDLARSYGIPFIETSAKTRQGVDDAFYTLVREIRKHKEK
Chain of KRAS G12V (P62937 whole entry): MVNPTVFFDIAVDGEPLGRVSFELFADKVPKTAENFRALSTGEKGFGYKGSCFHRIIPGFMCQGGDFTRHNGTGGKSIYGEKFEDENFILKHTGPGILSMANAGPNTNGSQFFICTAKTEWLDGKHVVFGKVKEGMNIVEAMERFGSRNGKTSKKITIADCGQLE
Procedure, shortened: as §1

NCI-H358 (K-Ras G12C) = assay: CellTiter-Glo cell viability assay, NCI-H358; assay type: cell-based, human; conditions: Homo sapiens, NCI-H358, 120 h, NCI-H358, 5-day treatment; class symbols; read-out: Additional H358 Cell Viability assay data (K-Ras G12C, IC50)
Procedure, shortened: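 Luminescent viability readout on day 5 after direct compound addition to plated cells; plates sat ~30 min at room temperature before reading. Values expressed as percent of mean DMSO signal, curves fit with a four-parameter logistic model.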

K-Ras G13C = K-Ras G13C (Homo sapiens (Human), UniProt P01116+P62937, G13C); assay: Ras-Raf (BRAF RBD) disruption / FRET / MOA assay, KRAS G13C; assay type: biochemical; conditions: KRAS G13C; Ras-Raf disruption/FRET/MOA assay; read-out: IC50* KRAS G13C FRET data
Chain of K-Ras G13C (P01116-2 other isoform, or with tags, fused parts or gaps G13C): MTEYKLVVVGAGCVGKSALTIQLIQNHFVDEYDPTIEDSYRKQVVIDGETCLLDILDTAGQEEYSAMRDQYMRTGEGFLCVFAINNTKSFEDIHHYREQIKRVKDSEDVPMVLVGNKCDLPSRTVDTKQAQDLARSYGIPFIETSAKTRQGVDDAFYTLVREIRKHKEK
Chain of K-Ras G13C (P62937 whole entry): as the sequence (P62937 whole entry) above
Procedure, shortened: as §1

KRAS G12S = KRAS G12S (Homo sapiens (Human), UniProt P01116+P62937, G12S); assay: Ras-Raf (BRAF RBD) disruption / FRET / MOA assay, KRAS G12S; assay type: biochemical; conditions: Ras-Raf disruption/FRET/MOA assay; class symbols; read-out: KRAS G12S FRET data IC50
Chain of KRAS G12S (P01116-2 other isoform, or with tags, fused parts or gaps G12S): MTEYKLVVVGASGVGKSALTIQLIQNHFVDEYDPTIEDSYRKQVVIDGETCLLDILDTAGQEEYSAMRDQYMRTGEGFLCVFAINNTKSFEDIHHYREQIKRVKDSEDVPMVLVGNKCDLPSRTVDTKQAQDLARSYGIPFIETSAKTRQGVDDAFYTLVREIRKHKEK
Chain of KRAS G12S (P62937 whole entry): as the sequence (P62937 whole entry) above
Procedure, shortened: as §1

KRAS G12D = KRAS G12D (Homo sapiens (Human), UniProt P01116+P62937, G12D); assay: Ras-Raf (BRAF RBD) disruption / FRET / MOA assay, KRAS G12D; assay type: biochemical; conditions: Ras-Raf disruption/FRET/MOA assay; class symbols; read-out: KRAS G12D FRET data IC50
Chain of KRAS G12D (P01116-2 other isoform, or with tags, fused parts or gaps G12D): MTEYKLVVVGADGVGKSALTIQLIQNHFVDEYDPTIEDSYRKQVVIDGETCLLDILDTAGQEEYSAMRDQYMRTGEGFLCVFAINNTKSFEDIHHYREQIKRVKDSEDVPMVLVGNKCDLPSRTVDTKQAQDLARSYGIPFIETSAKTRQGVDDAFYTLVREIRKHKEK
Chain of KRAS G12D (P62937 whole entry): as the sequence (P62937 whole entry) above
Procedure, shortened: as §1

[1] = system: NCI-H358 cells (K-Ras G12C); assay: Potency assay: pERK in NCI-H358 cells; assay type: cell-based, human; conditions: Homo sapiens, NCI-H358; H358 KRAS G12C; read-out: pERK EC50
Procedure, shortened: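 Compounds are dosed as ten 3-fold dilutions from a 10 mM DMSO stock, in duplicate, and left on cells for 4 h at 37 °C, 5% CO2. Phospho-ERK1/2 is then quantified by AlphaLISA SureFire Ultra or In-Cell Western, and IC50 is derived from a 4-parameter sigmoid against log concentration.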

K-Ras G12C = K-Ras G12C (Homo sapiens (Human), UniProt P01116+P62937, G12C); assay: Ras-Raf (BRAF RBD) disruption / FRET / MOA assay, KRAS G12C; assay type: biochemical; conditions: KRAS G12C; Ras-Raf disruption/FRET/MOA assay; read-out: IC50* KRAS G12C FRET data
Chain of K-Ras G12C (P01116-2 other isoform, or with tags, fused parts or gaps G12C): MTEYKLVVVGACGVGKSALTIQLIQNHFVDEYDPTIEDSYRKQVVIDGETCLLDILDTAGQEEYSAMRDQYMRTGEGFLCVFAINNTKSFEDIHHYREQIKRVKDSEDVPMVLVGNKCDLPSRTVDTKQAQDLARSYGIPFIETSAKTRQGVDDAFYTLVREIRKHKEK
Chain of K-Ras G12C (P62937 whole entry): as the sequence (P62937 whole entry) above
Procedure, shortened: as §1

KRAS G13D = KRAS G13D (Homo sapiens (Human), UniProt P01116+P62937, G13D); assay: Ras-Raf (BRAF RBD) disruption / FRET / MOA assay, KRAS G13D; assay type: biochemical; conditions: read-out: IC50* KRAS G13D FRET data
Chain of KRAS G13D (P01116-2 other isoform, or with tags, fused parts or gaps G13D): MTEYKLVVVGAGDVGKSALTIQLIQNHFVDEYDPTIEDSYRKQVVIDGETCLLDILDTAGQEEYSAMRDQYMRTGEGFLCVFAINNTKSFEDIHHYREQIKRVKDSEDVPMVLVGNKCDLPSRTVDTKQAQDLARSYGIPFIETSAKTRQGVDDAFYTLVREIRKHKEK
Chain of KRAS G13D (P62937 whole entry): as the sequence (P62937 whole entry) above
Procedure, shortened: as §1

KRAS WT = KRAS WT (Homo sapiens (Human), UniProt P01116+P62937); assay: Ras-Raf (BRAF RBD) disruption / FRET / MOA assay, KRAS WT; assay type: biochemical; conditions: read-out: IC50* KRAS WT FRET data
Chain of KRAS WT (P01116-2 other isoform, or with tags, fused parts or gaps): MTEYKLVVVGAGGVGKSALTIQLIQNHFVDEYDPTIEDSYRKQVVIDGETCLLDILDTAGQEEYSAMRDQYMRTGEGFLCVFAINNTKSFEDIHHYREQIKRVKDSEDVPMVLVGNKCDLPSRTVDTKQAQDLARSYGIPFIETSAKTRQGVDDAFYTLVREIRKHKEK
Chain of KRAS WT (P62937 whole entry): as the sequence (P62937 whole entry) above
Procedure, shortened: as §1

Chain of NRAS G12C (P01111 whole entry G12C): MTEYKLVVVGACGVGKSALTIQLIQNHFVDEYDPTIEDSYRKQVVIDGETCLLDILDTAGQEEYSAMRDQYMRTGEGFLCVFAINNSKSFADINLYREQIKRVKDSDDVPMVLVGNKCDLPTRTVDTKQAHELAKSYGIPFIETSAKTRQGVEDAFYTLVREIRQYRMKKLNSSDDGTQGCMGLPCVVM
Chain of NRAS G12C (P62937 whole entry): as the sequence (P62937 whole entry) above

Compound | IC50 (NRAS G12C) | IC50 (KRAS G12V) | IC50 (NCI-H358 (K-Ras G12C)) | IC50 (K-Ras G13C) | IC50 (KRAS G12S) | IC50 (KRAS G12D) | EC50 [1] | IC50 (K-Ras G12C) | IC50 (KRAS G13D) | IC50 (KRAS WT)
CC#CC(=O)N1CC[C@H](C(=O)N(C)[C@H](C(=O)N[C@H]2Cc3nc(cs3)-c3ccc4c(c3)c(c(-c3cccnc3[C@H](C)OC)n4CC)CC(C)(C)COC(=O)[C@@H]3CCCN(N3)C2=O)C2CCCC2)C1 (atropisomer, axis not shown) [Example A309] | 1000 to 10000 nM | 1000 to 10000 nM | < 10 nM | 1000 to 10000 nM | 1000 to 10000 nM | > 10000 nM | < 5000 nM | 1000 to 10000 nM | > 10000 nM | 1000 to 10000 nM
CC#CC(=O)N1CC[C@H](C(=O)N(C)[C@H](C(=O)N[C@H]2Cc3cccc(c3)-c3ccc4c(c3)c(c(-c3cccnc3[C@H](C)OC)n4CC)CC(C)(C)COC(=O)[C@@H]3CCCN(N3)C2=O)C2CCCC2)C1 (atropisomer, axis not shown) [Example A310] | 100 to 1000 nM | 1000 to 10000 nM | 10 to 100 nM | 1000 to 10000 nM | 1000 to 10000 nM | > 10000 nM | < 5000 nM | 100 to 1000 nM | > 10000 nM | 1000 to 10000 nM
C=CC(=O)N1C[C@@H]2[C@H](C1)[C@@H]2C(=O)N(C)[C@H](C(=O)N[C@H]1Cc2cc(O)cc(c2)-c2ccc3c(c2)c(c(-c2cccnc2[C@H](C)OC)n3CC)CC(C)(C)COC(=O)[C@@H]2CCCN(N2)C1=O)C(C)C (atropisomer, axis not shown) [Example A319] | 10 to 100 nM | 10 to 100 nM | 10 to 100 nM | 10 to 100 nM | 10 to 100 nM | 10 to 100 nM | < 5000 nM | 10 to 100 nM | 10 to 100 nM | 10 to 100 nM
C=CC(=O)N1CC[C@H](C(=O)N(C)[C@H](C(=O)N[C@H]2Cc3cccc(c3)-c3ccc4c(c3)c(c(-c3cccnc3[C@H](C)OC)n4CC)CC(C)(C)COC(=O)[C@@H]3CCCN(N3)C2=O)C2CC2)C1 (atropisomer, axis not shown) [Example A320] | 100 to 1000 nM | 1000 to 10000 nM | 10 to 100 nM | 1000 to 10000 nM | 1000 to 10000 nM | > 10000 nM | < 5000 nM | 100 to 1000 nM | > 10000 nM | 1000 to 10000 nM
C=CC(=O)N1CC[C@H](C(=O)N(C)[C@H](C(=O)N[C@H]2Cc3cccc(c3)-c3ccc4c(c3)c(c(-c3cccnc3[C@H](C)OC)n4CC)CC(C)(C)COC(=O)[C@@H]3CCCN(N3)C2=O)C2CCC2)C1 (atropisomer, axis not shown) [Example A321] | 100 to 1000 nM | 1000 to 10000 nM | 10 to 100 nM | 1000 to 10000 nM | 1000 to 10000 nM | > 10000 nM | < 5000 nM | 100 to 1000 nM | 1000 to 10000 nM | 1000 to 10000 nM
CCn1c(-c2cccnc2[C@H](C)OC)c2c3cc(ccc31)-c1csc(n1)C[C@H](NC(=O)[C@H](C(C)C)N1CCC3(CCN(C(=O)C#CC(C)(C)N(C)C)CC3)C1=O)C(=O)N1CCC[C@H](N1)C(=O)OCC(C)(C)C2 (atropisomer, axis not shown) [Example A322] | 10 to 100 nM | > 10000 nM | < 10 nM | 100 to 1000 nM | > 10000 nM | > 10000 nM | < 5000 nM | < 10 nM | > 10000 nM | > 10000 nM
CCn1c(-c2cccnc2[C@H](C)OC)c2c3cc(ccc31)-c1csc(n1)C[C@H](NC(=O)[C@H](C(C)C)N1CCC3(CN(C(=O)C#CC(C)(C)N(C)C)C3)C1=O)C(=O)N1CCC[C@H](N1)C(=O)OCC(C)(C)C2 (atropisomer, axis not shown) [Example A323] | < 10 nM | > 10000 nM | < 10 nM | 100 to 1000 nM | > 10000 nM | > 10000 nM | < 5000 nM | < 10 nM | > 10000 nM | > 10000 nM
CCn1c(-c2cccnc2[C@H](C)OC)c2c3cc(ccc31)-c1cccc(c1)C[C@H](NC(=O)[C@H](C(C)C)N1CCC3(CN(C(=O)C#CC(C)(C)N(C)C)C3)C1=O)C(=O)N1CCC[C@H](N1)C(=O)OCC(C)(C)C2 (atropisomer, axis not shown) [Example A324] | < 10 nM | 1000 to 10000 nM | < 10 nM | 100 to 1000 nM | 1000 to 10000 nM | > 10000 nM | < 5000 nM | < 10 nM | > 10000 nM | 1000 to 10000 nM
CCn1c(-c2cccnc2[C@H](C)OC)c2c3cc(ccc31)-c1cccc(c1)C[C@H](NC(=O)[C@H](C(C)C)N(C)C(=O)[C@H]1CCN(C(=O)C#CC(C)(C)N3CCCC3)C1)C(=O)N1CCC[C@H](N1)C(=O)OCC(C)(C)C2 (atropisomer, axis not shown) [Example A326] | < 10 nM | 1000 to 10000 nM | < 10 nM | 1000 to 10000 nM | 1000 to 10000 nM | 1000 to 10000 nM | < 5000 nM | < 10 nM | 1000 to 10000 nM | 1000 to 10000 nM
C=CC(=O)N1CC[C@H](C(=O)N(C)[C@H](C(=O)N[C@H]2Cc3cccc(c3F)-c3ccc4c(c3)c(c(-c3cccnc3[C@H](C)OC)n4CC)CC(C)(C)COC(=O)[C@@H]3CCCN(N3)C2=O)C(C)C)C1 (atropisomer, axis not shown) [Example A327] | 100 to 1000 nM | > 10000 nM | 10 to 100 nM | 1000 to 10000 nM | 1000 to 10000 nM | > 10000 nM | < 5000 nM | 100 to 1000 nM | > 10000 nM | > 10000 nM
C=CC(=O)N1CCN(C(=O)N(C)[C@H](C(=O)N[C@H]2Cc3nc(cs3)-c3ccc4c(c3)c(c(-c3cccnc3[C@H](C)OC)n4CC)CC(C)(C)COC(=O)[C@@H]3CCCN(N3)C2=O)C(C)C)C2(CC2)C1 (atropisomer, axis not shown) [Example A395] | 100 to 1000 nM | 100 to 1000 nM | < 10 nM | 100 to 1000 nM | 100 to 1000 nM | 1000 to 10000 nM | < 5000 nM | 100 to 1000 nM | 100 to 1000 nM | 100 to 1000 nM
C=CC(=O)N1C[C@@H](F)[C@](F)(C(=O)N(C)[C@H](C(=O)N[C@H]2Cc3cccc(c3)-c3ccc4c(c3)c(c(-c3cccnc3[C@H](C)OC)n4CC)CC(C)(C)COC(=O)[C@@H]3CCCN(N3)C2=O)C(C)C)C1 (atropisomer, axis not shown) [Example A396] | 10 to 100 nM | 1000 to 10000 nM | < 10 nM | 10 to 100 nM | 1000 to 10000 nM | 1000 to 10000 nM | < 5000 nM | 10 to 100 nM | 1000 to 10000 nM | 1000 to 10000 nM
C=CC(=O)N1C[C@H](F)[C@](F)(C(=O)N(C)[C@H](C(=O)N[C@H]2Cc3cccc(c3)-c3ccc4c(c3)c(c(-c3cccnc3[C@H](C)OC)n4CC)CC(C)(C)COC(=O)[C@@H]3CCCN(N3)C2=O)C(C)C)C1 (atropisomer, axis not shown) [Example A397] | 10 to 100 nM | 100 to 1000 nM | < 10 nM | 10 to 100 nM | 100 to 1000 nM | 1000 to 10000 nM | < 5000 nM | 10 to 100 nM | 100 to 1000 nM | 100 to 1000 nM
